Measured values as given in ChEMBL document CHEMBL1201862, “PubChem BioAssay data set” (2004).
Active and inactive are the calls of the source.

What was measured:
[1] = target: Cytochrome P450 2D6 (Homo sapiens, UniProt P10635);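 also: CYP2D6 member of a cytochrome P450 panel assay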
[2] = intracellular Trypanosoma cruzi inhibitors in host cells – cell-based, plate reader, cherry-pick samples, set 3, dose response (AID 651818); type: functional;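 also: compounds incubated with infected cells for about four days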
[3] = target: T1, Replicative DNA helicase DnaB (Mycobacterium tuberculosis, UniProt P9WMR3); test: DnaB intein splicing inhibitors, dose response, biochemical, cell-free fluorescence (AID 449749); type: functional
T1 sequence (P9WMR3 whole entry): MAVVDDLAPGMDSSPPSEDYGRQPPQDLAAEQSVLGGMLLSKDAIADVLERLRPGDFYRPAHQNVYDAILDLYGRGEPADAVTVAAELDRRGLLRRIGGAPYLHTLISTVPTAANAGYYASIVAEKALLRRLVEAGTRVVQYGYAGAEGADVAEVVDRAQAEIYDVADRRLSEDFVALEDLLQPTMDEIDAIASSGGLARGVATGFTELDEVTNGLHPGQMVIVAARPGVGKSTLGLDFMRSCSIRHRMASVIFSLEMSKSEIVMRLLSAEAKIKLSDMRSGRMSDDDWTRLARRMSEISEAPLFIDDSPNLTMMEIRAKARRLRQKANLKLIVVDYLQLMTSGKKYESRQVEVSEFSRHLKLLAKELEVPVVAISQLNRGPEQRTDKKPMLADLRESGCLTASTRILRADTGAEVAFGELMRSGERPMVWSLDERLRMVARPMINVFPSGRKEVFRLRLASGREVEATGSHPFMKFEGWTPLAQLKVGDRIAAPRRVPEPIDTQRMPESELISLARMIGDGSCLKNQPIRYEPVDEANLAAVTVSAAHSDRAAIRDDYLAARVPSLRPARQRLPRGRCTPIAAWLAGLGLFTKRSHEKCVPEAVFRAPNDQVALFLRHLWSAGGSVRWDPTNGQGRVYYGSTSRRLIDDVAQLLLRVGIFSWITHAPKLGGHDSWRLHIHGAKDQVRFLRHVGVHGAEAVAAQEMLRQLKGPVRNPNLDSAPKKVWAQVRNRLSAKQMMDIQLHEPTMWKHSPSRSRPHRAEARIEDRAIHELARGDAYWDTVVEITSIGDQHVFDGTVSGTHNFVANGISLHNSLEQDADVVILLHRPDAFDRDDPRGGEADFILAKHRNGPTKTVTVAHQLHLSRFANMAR

[4] = target: T2, Protein RecA (Mycobacterium tuberculosis, UniProt P9WHJ3); test: Fluorescence Cell-Free Homogeneous Dose Retest to Identify Inhibitors of RecA-Intein Splicing Activity. [Related pubchem assays (depositor defined):AID2097, AID2223, AID489010, AID492950]; type: functional
T2 sequence (P9WHJ3 whole entry): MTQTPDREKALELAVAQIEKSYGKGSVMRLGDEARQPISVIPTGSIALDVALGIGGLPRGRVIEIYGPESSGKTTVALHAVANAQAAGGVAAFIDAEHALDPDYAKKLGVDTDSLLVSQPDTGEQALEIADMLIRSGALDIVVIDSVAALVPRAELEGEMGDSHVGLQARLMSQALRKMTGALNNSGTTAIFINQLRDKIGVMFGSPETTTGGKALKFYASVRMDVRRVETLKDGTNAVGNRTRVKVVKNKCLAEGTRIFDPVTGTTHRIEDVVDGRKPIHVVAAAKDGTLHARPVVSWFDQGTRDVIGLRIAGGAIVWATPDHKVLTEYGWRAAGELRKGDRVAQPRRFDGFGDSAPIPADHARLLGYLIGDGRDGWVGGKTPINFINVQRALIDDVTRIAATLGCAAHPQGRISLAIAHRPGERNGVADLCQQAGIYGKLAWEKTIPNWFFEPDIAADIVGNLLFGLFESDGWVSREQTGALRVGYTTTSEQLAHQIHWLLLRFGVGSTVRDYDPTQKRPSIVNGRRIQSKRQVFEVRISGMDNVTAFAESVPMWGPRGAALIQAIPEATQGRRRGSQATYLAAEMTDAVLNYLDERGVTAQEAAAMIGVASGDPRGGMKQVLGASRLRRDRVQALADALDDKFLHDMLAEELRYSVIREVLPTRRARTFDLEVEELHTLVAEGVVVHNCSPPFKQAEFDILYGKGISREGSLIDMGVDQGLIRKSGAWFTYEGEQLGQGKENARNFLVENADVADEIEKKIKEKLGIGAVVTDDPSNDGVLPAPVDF

[5] = Luminescence Cell-Based Dose Confirmation HTS to Identify Activators of 5'UTR Stem-Loop Driven Alpha-Synuclein mRNA Translation in H4 Neuroglioblastoma Cells. [Related pubchem assays: 1829 (Project Summary), 1814 (Primary HTS)]; type: functional
[6] = Luminescence Cell-Based Dose Response HTS to Identify Activators of Luciferase Translation or Activity in H4 […] Cells. [Related pubchem assays: 1829 (Project Summary), 1814 (Primary HTS)]; type: functional
[7] = system: H4; test: Luminescence Cell-Based Dose Response HTS to Identify Activators of 5'UTR Stem-Loop Driven Prion Protein mRNA Translation in H4 Neuroglioblastoma Cells. [Related pubchem assays: 1829 (Project Summary), 1814 (Primary HTS)]; type: functional; settings: Homo sapiens
[8] = target: T3, Protein skinhead-1 (Caenorhabditis elegans, UniProt P34707); type: functional
T3 sequence (P34707 whole entry): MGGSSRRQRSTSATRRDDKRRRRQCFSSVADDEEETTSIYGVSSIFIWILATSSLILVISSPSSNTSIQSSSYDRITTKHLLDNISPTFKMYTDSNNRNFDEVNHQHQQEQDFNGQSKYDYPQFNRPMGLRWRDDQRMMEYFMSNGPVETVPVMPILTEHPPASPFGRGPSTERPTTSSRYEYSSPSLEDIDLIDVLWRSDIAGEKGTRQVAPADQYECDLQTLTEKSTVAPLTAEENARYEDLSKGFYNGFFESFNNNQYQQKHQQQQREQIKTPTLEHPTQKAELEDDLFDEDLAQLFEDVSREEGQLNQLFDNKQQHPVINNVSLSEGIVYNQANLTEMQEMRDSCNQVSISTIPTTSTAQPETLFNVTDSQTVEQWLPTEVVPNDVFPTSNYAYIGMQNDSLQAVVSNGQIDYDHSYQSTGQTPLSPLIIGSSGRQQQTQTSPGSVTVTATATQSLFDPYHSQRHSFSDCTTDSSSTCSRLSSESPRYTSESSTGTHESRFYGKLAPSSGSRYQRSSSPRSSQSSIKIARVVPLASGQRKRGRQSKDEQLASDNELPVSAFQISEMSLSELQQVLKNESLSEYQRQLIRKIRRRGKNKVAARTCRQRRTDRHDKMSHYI

[9] = target: T4, Cytochrome P450 2C9 (Homo sapiens, UniProt P11712)
T4 sequence (P11712 whole entry): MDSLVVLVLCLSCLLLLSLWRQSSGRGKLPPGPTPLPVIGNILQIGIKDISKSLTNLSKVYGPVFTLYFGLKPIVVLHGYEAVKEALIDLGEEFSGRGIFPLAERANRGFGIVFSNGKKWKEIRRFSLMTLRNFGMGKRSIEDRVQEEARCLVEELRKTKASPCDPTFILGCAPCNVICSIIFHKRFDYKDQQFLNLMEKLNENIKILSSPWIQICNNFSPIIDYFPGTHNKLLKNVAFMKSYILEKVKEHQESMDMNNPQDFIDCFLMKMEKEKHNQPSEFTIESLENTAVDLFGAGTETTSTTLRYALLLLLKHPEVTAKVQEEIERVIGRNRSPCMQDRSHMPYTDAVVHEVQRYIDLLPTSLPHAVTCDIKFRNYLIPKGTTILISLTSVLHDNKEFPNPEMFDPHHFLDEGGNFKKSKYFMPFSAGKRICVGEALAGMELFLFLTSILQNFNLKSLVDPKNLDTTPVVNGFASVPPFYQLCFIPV

[10] = growth suppression of PTEN-null colon cells, dose response, cell-based, HCT116 PTEN knockout (AID 1047); type: functional;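 also: HCT116 colon tumor cells with PTEN knocked out; cells exposed to compound for 60 hours before readout; potency for loss of cell viability measured by luminescence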
[11] = growth suppression of beta-catenin-knockout colon cells, dose response, cell-based, HCT116, human colon tumor (AID 1045); type: functional;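 also: HCT116 colon tumor cells with beta catenin knocked out; cells exposed to compound for 60 hours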
[12] = system: Streptococcus sp. 'group A'; test: growth inhibition of control SK(-) GAS strain, dose response, counter-screen for streptokinase expression inhibitor project, luminescence, kanamycin, BacTiterGlo, confirmation (AID 1900); type: functional, organism-based
[13] = system: Streptococcus; test: Group A Streptococcus viability loss, dose response, counter-screen for streptokinase expression inhibitor project, luminescence, BacTiterGlo (AID 1915); type: functional, organism-based;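 also: potency for reduction of bacterial viability or growth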
[14] = target: Cytochrome P450 2C19 (Homo sapiens, UniProt P33261); test: Cytochrome panel assay with activity outcomes. Panel member name: p450-cyp2c19 Compounds with AC50 equal or less than 10 uM are considered active; type: functional; settings: read-out: AC50
Cytochrome P450 2C19, sequence (P33261 whole entry): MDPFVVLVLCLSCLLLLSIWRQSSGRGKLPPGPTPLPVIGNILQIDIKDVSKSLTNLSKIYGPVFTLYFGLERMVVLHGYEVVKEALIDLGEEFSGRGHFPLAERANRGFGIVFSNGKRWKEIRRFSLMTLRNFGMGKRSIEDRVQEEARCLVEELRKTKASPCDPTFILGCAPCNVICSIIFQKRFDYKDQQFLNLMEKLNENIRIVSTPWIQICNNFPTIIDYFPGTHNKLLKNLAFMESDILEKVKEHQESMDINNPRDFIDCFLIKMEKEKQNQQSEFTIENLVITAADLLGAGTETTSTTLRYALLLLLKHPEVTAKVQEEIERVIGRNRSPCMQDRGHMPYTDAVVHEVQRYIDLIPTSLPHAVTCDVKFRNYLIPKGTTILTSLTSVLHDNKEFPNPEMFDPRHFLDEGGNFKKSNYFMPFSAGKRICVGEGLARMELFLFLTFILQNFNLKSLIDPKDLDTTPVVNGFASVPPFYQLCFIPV

[15] = target: T5, Cytochrome P450 1A2 (Homo sapiens, UniProt P05177);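 also: PubChem cytochrome P450 panel assay, CYP1A2 panel member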
T5 sequence (P05177 whole entry): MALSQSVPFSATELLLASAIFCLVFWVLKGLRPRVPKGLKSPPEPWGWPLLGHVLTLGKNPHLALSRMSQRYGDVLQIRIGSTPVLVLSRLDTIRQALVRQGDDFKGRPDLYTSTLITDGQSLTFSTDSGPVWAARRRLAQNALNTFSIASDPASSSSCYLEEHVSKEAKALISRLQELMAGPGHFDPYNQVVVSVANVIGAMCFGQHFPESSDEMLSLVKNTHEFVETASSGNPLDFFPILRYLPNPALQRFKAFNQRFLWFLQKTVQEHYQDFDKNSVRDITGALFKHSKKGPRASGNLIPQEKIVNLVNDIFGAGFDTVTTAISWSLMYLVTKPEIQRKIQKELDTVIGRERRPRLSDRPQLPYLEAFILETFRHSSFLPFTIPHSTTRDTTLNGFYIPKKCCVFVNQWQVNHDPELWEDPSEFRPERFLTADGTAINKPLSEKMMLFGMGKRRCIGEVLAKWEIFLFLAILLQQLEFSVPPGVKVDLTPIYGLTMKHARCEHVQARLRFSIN

[16] = target: Cytochrome P450 3A4 (Homo sapiens, UniProt P08684);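 also: CYP3A4 tested as one member of a cytochrome P450 panel screen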
Cytochrome P450 3A4, sequence (P08684 whole entry): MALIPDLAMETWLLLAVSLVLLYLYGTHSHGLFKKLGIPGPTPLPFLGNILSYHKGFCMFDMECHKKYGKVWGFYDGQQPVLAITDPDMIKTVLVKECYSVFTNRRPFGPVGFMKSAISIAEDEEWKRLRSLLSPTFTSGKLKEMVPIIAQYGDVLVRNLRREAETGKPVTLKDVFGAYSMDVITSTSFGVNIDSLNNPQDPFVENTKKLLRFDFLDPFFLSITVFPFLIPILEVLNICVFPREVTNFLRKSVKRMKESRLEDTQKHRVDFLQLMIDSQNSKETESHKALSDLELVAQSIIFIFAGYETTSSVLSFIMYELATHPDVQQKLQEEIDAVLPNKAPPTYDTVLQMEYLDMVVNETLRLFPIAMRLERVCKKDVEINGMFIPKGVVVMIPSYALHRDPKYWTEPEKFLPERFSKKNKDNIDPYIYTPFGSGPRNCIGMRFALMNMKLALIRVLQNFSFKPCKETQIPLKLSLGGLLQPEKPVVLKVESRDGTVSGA

[17] = system: P388; test: cells; type: functional; settings: Mus musculus;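 also: compound exposure lasted 48 hours before growth was measured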
[18] = target: T4, Cytochrome P450 2C9; remark: listed apart in the source

Cytochrome P450 2D6, sequence (P10635 whole entry): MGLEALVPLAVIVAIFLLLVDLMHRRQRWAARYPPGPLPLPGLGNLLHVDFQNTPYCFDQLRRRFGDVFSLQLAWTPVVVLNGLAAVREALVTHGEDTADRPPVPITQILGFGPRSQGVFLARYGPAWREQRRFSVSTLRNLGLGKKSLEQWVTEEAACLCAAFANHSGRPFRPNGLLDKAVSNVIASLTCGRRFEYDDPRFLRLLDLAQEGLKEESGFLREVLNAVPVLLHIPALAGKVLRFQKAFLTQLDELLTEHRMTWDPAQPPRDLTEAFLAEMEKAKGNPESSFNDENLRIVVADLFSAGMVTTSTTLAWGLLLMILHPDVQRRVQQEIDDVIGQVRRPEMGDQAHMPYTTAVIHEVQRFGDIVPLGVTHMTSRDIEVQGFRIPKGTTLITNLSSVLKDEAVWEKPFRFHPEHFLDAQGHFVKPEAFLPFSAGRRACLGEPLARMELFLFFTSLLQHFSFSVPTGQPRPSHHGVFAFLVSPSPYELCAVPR

## CCOC(=O)CSC1=C(C#N)C(c2sccc2C)C(C(C)=O)=C(C)N1 (stereo not given)
[1]
  AC50: 35.5 µM (inconclusive)

## C[N+](C)(C)C1=NNC2=Nc3ccccc3SC2=C1
[1]
  AC50: 3.98 µM (inconclusive)

## C[C@H]1CN([C@@H](C)CO)C(=O)Cc2cc(NC(=O)NC3CCCCC3)ccc2O[C@H]1CN(C)Cc1ccc(C(=O)Nc2ccccc2N)cc1
[2]
  AC50: 2.97 µM (active)

## COC(=O)c1cc([N+](=O)[O-])c(-n2ccnc2)c([N+](=O)[O-])c1
[3]
  AC50: 6.54 µM (active)
[4]
  EC50: 4.53 µM (active)

## CCOC(=O)c1cc2cc3ccccc3cc2[nH]1
[5]
  EC50: 164 nM (active)
[6]
  EC50: 191 nM (active)
[7]
  EC50: > 120 µM (not active)
[4]
  EC50: > 380 µM (inactive)
[8]
  IC50: > 100 µM (inactive)

## C[C@H](CO)N1C[C@H](C)[C@@H](CN(C)S(=O)(=O)c2cn(C)cn2)Oc2c(cccc2N(C)C)C1=O
[2]
  AC50: 15.8 µM (active)

## COCCNc1ncnc2ccc(-c3ccccc3OC)cc12
[1]
  AC50: 39.8 µM (inconclusive)

## O=C(Cn1cc(C(=O)c2ccco2)c2ccccc21)NCc1ccco1
[1]
  AC50: 22.4 µM (inconclusive)

## COc1cc(C2(c3ccc(O)c(OC)c3)C(=O)Nc3c(Br)cc(Br)cc32)ccc1O
[3]
  AC50: 3.13 µM (active)
[4]
  EC50: 4.77 µM (active)

## Cc1ccc(S(=O)(=O)Nc2cccc3c2O[C@H](CN(C)C(=O)Nc2ccc4c(c2)OCO4)[C@H](C)CN([C@H](C)CO)C3=O)cc1
[2]
  AC50: 20 µM (inactive)

## CCOc1cc(/C=C2/C(=N)N3OC(C)=CC3=NC2=O)ccc1O
[3]
  AC50: 95.1 µM (active)
[4]
  EC50: 26.9 µM (active)

## CCOC(=O)CC1=NN(c2ccccc2)C(=O)C1
[3]
  AC50: 13.1 µM (active)
[4]
  EC50: 10.1 µM (active)

## CCn1c(COc2ccc(OC)cc2)nc2ccccc21
[1]
  AC50: 17.8 µM (inconclusive)
[9]
  AC50: inconclusive

## CCOC(=O)/C=c1\s/c(=C\c2ccc(C(F)(F)F)cc2)c(=O)n1CC(=O)NCc1ccco1
[10]
  EC50: 35.9 µM (active)
[11]
  EC50: 45.9 µM (active)

## C[C@@H]1CN([C@H](C)CO)C(=O)Cc2cc(NC(=O)Nc3ccccc3)ccc2O[C@@H]1CN(C)Cc1ccc(C(=O)Nc2ccccc2N)cc1
[2]
  AC50: 3.23 µM (active)

## CCCCN1C(=O)C(O)(CC(=O)c2ccco2)c2cc(Br)ccc21 (stereo not given)
[10]
  EC50: 7.11 µM (active)
[11]
  EC50: 5.01 µM (active)

## O=C(N/N=C/c1c[nH]c2ccccc12)c1cc(-c2ccc(-c3ccccc3)cc2)[nH]n1
[5]
  EC50: 219 nM (active)
[6]
  EC50: 166 nM (active)
[12]
  EC50: 3.46 µM (active)
[7]
  EC50: > 120 µM (not active)
[10]
  EC50: 5.81 µM (active)
[11]
  EC50: 8.8 µM (active)
[13]
  EC50: 1.56 µM (active)
[14]
  AC50: 6.31 µM (inconclusive)
[15]
  AC50: 3.16 µM (inconclusive)
[9]
  AC50: inconclusive

## CC(C)c1n[nH]c2c1C(c1cccs1)C(C#N)=C(N)O2 (stereo not given)
[3]
  AC50: 10.8 µM (active)
[4]
  EC50: 4.29 µM (active)

## CN(C)C(=O)c1ccc(-c2nc(Nc3ccc(F)cc3)c3ccccc3n2)cc1
[1]
  AC50: 25.1 µM (inconclusive)
[16]
  AC50: 20 µM (inconclusive)

## COc1ccc2c3c(c4cc(OC)c(OC)cc4c2c1)C[C@H]1CCCCN1C3 [CRYPTOPLEURINE]
[17]
  GI50: 5 nM (active)

## O=C(c1ccc([N+](=O)[O-])cc1)[C@@H](Br)[C@@H](Br)c1ccnc2ccccc12
[1]
  AC50: 3.98 µM (inconclusive)

## COc1cc2c(cc1OC)-c1cc3ccc(OC)c(OC)c3c[n+]1CC2 [PALMITINE]
[1]
  AC50: 12.6 µM (inconclusive)

## COc1cc2cc(/C=C/C(=O)c3ccco3)c(Cl)nc2cc1OC
[10]
  EC50: 11.6 µM (active)
[11]
  EC50: 10.1 µM (active)

## COc1cccc(/C=N/NC(=O)CNC(=O)C2COc3ccccc3O2)c1O (stereo not given)
[10]
  EC50: 13.1 µM (active)
[11]
  EC50: 10.9 µM (active)

## COc1cc(C2NC(=O)C(C#N)=C(Nc3cccc(C)c3)S2)ccc1O (stereo not given)
[3]
  AC50: 42 µM (active)
[4]
  EC50: 20 µM (active)

## COC(=O)[C@@]1(Cc2ccc(F)cc2)[C@H]2c3cc(C(=O)N(C)C)n(Cc4ccc(C)c(F)c4F)c3C[C@H]2CN1C(=O)c1ccccc1
[1]
  AC50: 20 µM (inconclusive)

## O=c1c(-c2cccs2)nc2cncnc2n1Cc1ccc(F)cc1
[1]
  AC50: 0.631 µM (inconclusive)
[18]
  AC50: 1 µM (inconclusive)

## CCOC(=O)/C(=C/c1ccc(N2CCC(c3ccccc3)=N2)cc1)C(C)=O
[10]
  EC50: 0.014 µM (active)
[11]
  EC50: 26.7 µM (active)
